For test [1], the target named is T1, SARS-CoV-2 M^pro G15S (Severe acute respiratory syndrome coronavirus 2, UniProt P0DTC1, G3278S). The settings on record: cited from earlier work.
The target in test [2] is T2, SARS-CoV-2 M^pro D248E (Severe acute respiratory syndrome coronavirus 2, UniProt P0DTC1, D3511E). Conditions: cited from earlier work.
Test [3] deals with T3, SARS-CoV-2 M^pro H164N (Severe acute respiratory syndrome coronavirus 2, UniProt P0DTC1, H3427N). Conditions: cited from earlier work.
Test [4] concerns SARS-CoV-2 M^pro P132H. The settings on record: cited from earlier work.
The target of test [5] is T4, SARS-CoV-2 M^pro T135I (Severe acute respiratory syndrome coronavirus 2, UniProt P0DTC1, T3398I). The settings on record: cited from earlier work.
Test [6] concerns the target SARS-CoV-2 M^pro K90R (Severe acute respiratory syndrome coronavirus 2, UniProt P0DTC1, K3353R). It counts as biochemical.
Test [7] has as its target SARS-CoV-2 M^pro T21I + A173V + T304I (Severe acute respiratory syndrome coronavirus 2, UniProt P0DTC1, A3436V/T3284I/T3567I). It counts as biochemical.
For test [8], the target named is SARS-CoV-2 M^pro T21I + A173V (Severe acute respiratory syndrome coronavirus 2, UniProt P0DTC1, A3436V/T3284I). Type of test: biochemical.
The target of test [9] is SARS-CoV-2 M^pro T21I + S144A + T304I (Severe acute respiratory syndrome coronavirus 2, UniProt P0DTC1, S3407A/T3284I/T3567I). Type of test: biochemical.
The target of test [10] is SARS-CoV-2 M^pro T135I + T304I (Severe acute respiratory syndrome coronavirus 2, UniProt P0DTC1, T3398I/T3567I). Type of test: biochemical.
For test [11], the target named is SARS-CoV-2 M^pro E166V (Severe acute respiratory syndrome coronavirus 2, UniProt P0DTC1, E3429V). Type of test: biochemical.
Test [12] deals with SARS-CoV-2 M^pro L50F + F140L + L167F + T304I (Severe acute respiratory syndrome coronavirus 2, UniProt P0DTC1, F3403L/L3313F/L3430F/T3567I). It counts as biochemical.
The target of test [13] is SARS-CoV-2 M^pro L50F + E166A (Severe acute respiratory syndrome coronavirus 2, UniProt P0DTC1, E3429A/L3313F). Type of test: biochemical.
The target of test [14] is T3, SARS-CoV-2 M^pro H164N. It counts as biochemical.
Test [15] concerns the target SARS-CoV-2 M^pro L50F + A173V (Severe acute respiratory syndrome coronavirus 2, UniProt P0DTC1, A3436V/L3313F). Type of test: biochemical.
Test [16] addresses SARS-CoV-2 M^pro S144A (Severe acute respiratory syndrome coronavirus 2, UniProt P0DTC1, S3407A). It counts as biochemical.
In test [17] the target is SARS-CoV-2 M^pro H172Y + P252L (Severe acute respiratory syndrome coronavirus 2, UniProt P0DTC1, H3435Y/P3515L). It counts as biochemical.
Test [18] deals with SARS-CoV-2 M^pro T21I + L50F + A193P + S301P (Severe acute respiratory syndrome coronavirus 2, UniProt P0DTC1, A3456P/L3313F/S3564P/T3284I). It counts as biochemical.
The target of test [19] is SARS-CoV-2 M^pro Q189K (Severe acute respiratory syndrome coronavirus 2, UniProt P0DTC1, Q3452K). Type of test: biochemical.
The target of test [20] is SARS-CoV-2 M^pro L50F + E166V (Severe acute respiratory syndrome coronavirus 2, UniProt P0DTC1, E3429V/L3313F). Type of test: biochemical.
In test [21] the target is SARS-CoV-2 M^pro A173V + T304I (Severe acute respiratory syndrome coronavirus 2, UniProt P0DTC1, A3436V/T3567I). Type of test: biochemical.
Test [22] addresses SARS-CoV-2 M^pro A260V (Severe acute respiratory syndrome coronavirus 2, UniProt P0DTC1, A3523V). Type of test: biochemical.
The target of test [23] is SARS-CoV-2 M^pro H172Y (Severe acute respiratory syndrome coronavirus 2, UniProt P0DTC1, H3435Y). Type of test: biochemical.
The target in test [24] is SARS-CoV-2 M^pro T21I + E166V (Severe acute respiratory syndrome coronavirus 2, UniProt P0DTC1, E3429V/T3284I). Type of test: biochemical.
Test [25] deals with T1, SARS-CoV-2 M^pro G15S. It counts as biochemical.
Test [26] addresses SARS-CoV-2 M^pro T21I + T304I (Severe acute respiratory syndrome coronavirus 2, UniProt P0DTC1, T3284I/T3567I). Type of test: biochemical.
For test [27], the target named is SARS-CoV-2 M^pro L50F + T304I (Severe acute respiratory syndrome coronavirus 2, UniProt P0DTC1, L3313F/T3567I). It counts as biochemical.
In test [28] the target is SARS-CoV-2 M^pro L50F + E166A + L167F (Severe acute respiratory syndrome coronavirus 2, UniProt P0DTC1, E3429A/L3313F/L3430F). It counts as biochemical.
Test [29] deals with SARS-CoV-2 M^pro T21I + L50F (Severe acute respiratory syndrome coronavirus 2, UniProt P0DTC1, L3313F/T3284I). It counts as biochemical.
Test [30] deals with SARS-CoV-2 M^pro T21I + S144A (Severe acute respiratory syndrome coronavirus 2, UniProt P0DTC1, S3407A/T3284I). It counts as biochemical.
Test [31] has as its target T2, SARS-CoV-2 M^pro D248E. Type of test: biochemical.
Test [32] addresses SARS-CoV-2 M^pro E166A (Severe acute respiratory syndrome coronavirus 2, UniProt P0DTC1, E3429A). It counts as biochemical.
For test [33], the target named is T4, SARS-CoV-2 M^pro T135I. It counts as biochemical.
Test [34] has as its target SARS-CoV-2 M^pro T21I (Severe acute respiratory syndrome coronavirus 2, UniProt P0DTC1, T3284I). It counts as biochemical.
Test [35] deals with SARS-CoV-2 M^pro T21I + C160F + A173V+ V186A + T304I (Severe acute respiratory syndrome coronavirus 2, UniProt P0DTC1, A3436V/C3423F/T3284I/T3567I/V3449A). Type of test: biochemical.
Test [36] addresses SARS-CoV-2 M^pro L50F (Severe acute respiratory syndrome coronavirus 2, UniProt P0DTC1, L3313F). It counts as biochemical.
The subject of test [37] is SARS-CoV-2-EGFP replicon L50F + E166A + L167F. Type of test: cell-based.
Test [38] relates to SARS-CoV-2-EGFP replicon T21I. Type of test: cell-based.
Test [39] deals with SARS-CoV-2 D614G B.1 (ancestral). It counts as cell-based.
In test [40] the test system is SARS-CoV-2-EGFP replicon S144A. Type of test: cell-based.
The subject of test [41] is SARS-CoV-2-EGFP replicon E166A. Type of test: cell-based.
The test system of test [42] is SARS-CoV-2-EGFP replicon L50F + E166A. Type of test: cell-based.
Test [43] deals with SARS-CoV-2-EGFP replicon L167F. Type of test: cell-based.
For test [44], the system named is SARS-CoV-2-EGFP replicon T21I + L50F. Type of test: cell-based.
In test [45] the test system is SARS-CoV-2-EGFP replicon L50F. It counts as cell-based.

pEC50, pIC50: −log10 of the molar value.

We go through 3 compounds from PMC10649086 (Antimicrobial Agents and Chemotherapy, 2023).

For the compound `CC(C)(C)[C@H](NC(=O)C(F)(F)F)C(=O)N1C[C@H]2[C@@H]([C@H]1C(=O)N[C@H](C#N)C[C@@H]1CCNC1=O)C2(C)C` [nirmatrelvir], the “resistance in the Mpro assay” value in test [1], in test [2], in test [3] and in test [5] was “~fourfold” each time. Moreover, in test [4], the “effect of P132H variant on inhibition” value is recorded as “no effect”.

With GC376, the pIC50 was 8.00 in [6]; 7.05 in test [7]; 7.10 in test [8]; 6.72 in test [9]; 7.15 in test [10]; 6.18 in [11]. Further, the pIC50 in test [12] is 6.77; in test [13] it was 6.57; in test [14], 7.10; in test [15] it was 7.22; in test [16], 6.92; in test [17], 6.55. Moreover, the pIC50 is 7.15 in test [18]; 7.30 in test [19]; 6.37 in [20]; 7.00 in test [21]; 7.70 in test [22]; 6.39 in test [23]. Besides, the pIC50 in test [24] is 6.23; in test [25], 7.70; in [26], 7.30; in test [27], 7.22; in test [28], 6.12; in test [29], 7.70. Moreover, the negative-log IC50 (pIC50) in [30] was 6.92; in test [31], 7.52; in test [32] it was 6.49; in [33], 7.70; in test [34], 7.70; in test [35] it was 7.05. Besides, the pIC50 in test [36] was 7.70.

On to `N#C[C@H](C[C@@H]1CCCNC1=O)NC(=O)[C@H](CC1CC1)NC(=O)c1cc2cccc(Cl)c2[nH]1` [pomotrelvir], for which the pEC50 in [37] (read-out: EC50 Mean (SD)) was 5.85; in [38] (read-out: EC50 Mean (SD)) it was 7.48; in [39] (read-out: EC50 Mean (SD)), 6.82; in test [40] (read-out: EC50 Mean (SD)) it was 7.04; in test [41] (read-out: EC50 Mean (SD)), 6.96; in test [42] (read-out: EC50 Mean (SD)), 6.39. Moreover, the pEC50 in test [43] (read-out: EC50 Mean (SD)) is 7.25; in test [44] (read-out: EC50 Mean (SD)), 6.96; in [45] (read-out: EC50 Mean (SD)), 7.85. The EC90 in test [37] (read-out: EC90 Mean (SD)) is 8300 nM; in [38] (read-out: EC90 Mean (SD)) it was 270 nM; in test [39] (read-out: EC90 Mean (SD)), 547 nM; in [40] (read-out: EC90 Mean (SD)), 560 nM; in [41] (read-out: EC90 Mean (SD)), 710 nM; in test [42] (read-out: EC90 Mean (SD)), 1800 nM. In addition, the results for the EC90 in test [43] (read-out: EC90 Mean (SD)), in test [44] (read-out: EC90 Mean (SD)) and in test [45] (read-out: EC90 Mean (SD)) were 510 nM, 780 nM and 150 nM, respectively.
